Values quoted from earlier work, collected in article PMC7395068, “The evolution of strategies to minimise the risk of human drug-induced liver injury (DILI) in drug discovery and development” (Archives of Toxicology, 2020).
Where two headings read alike, the source gives them in different places.

Legend:
HepG2 cells [1] = conditions: cited from earlier work
[2] = cited from earlier work
human hepatocytes = conditions: In vitro Assay; ref Xu 2008; cited from earlier work
[3] = test system: primary human hepatocytes, NIH3T3 fibroblasts, BSEP, CYP3A4; conditions: In vitro Assay; ref Schadt 2015; cited from earlier work
[4] = test system: THLE or HepG2 cells, isolated mitochondria, BSEP; conditions: cited from earlier work
[5] = cited from earlier work; remark: listed apart in the source
hLiMTs = conditions: In vitro Assay; ref Proctor 2017; cited from earlier work
PHH spheroids = conditions: In vitro Assay; ref Vorrink 2018; cited from earlier work
[6] = test system: HepG2 C3A spheroid, BSEP, Glu/Gal in HepG2 cells, bioactivation; conditions: In vitro Assay; ref Williams 2019; cited from earlier work
[7] = ref Chen 2011; cited from earlier work
PHH = conditions: In vitro Assay; ref Proctor 2017; cited from earlier work
HepG2 cells [8] = conditions: cited from earlier work; remark: listed apart in the source
HepG2 cells [9] = conditions: In vitro Assay; ref Persson 2013; cited from earlier work
[10] = test system: THLE-Null and THLE-3A4 cells; conditions: In vitro Assay; ref Gustafsson 2014; cited from earlier work
[11] = test system: HepG2 cells, primary human hepatocytes; conditions: In vitro Assay; ref Garside 2014; cited from earlier work
rBsep = conditions: In vitro Assay; ref Dawson 2012; cited from earlier work
[12] = In vitro Assay, ref Tolosa 2012

OC[C@H]1O[C@@H](O[C@H]2[C@H](O)[C@@H](O)C(O)O[C@@H]2CO)[C@H](O)[C@@H](O)[C@H]1O (mixture of isomers) [lactose]
-VE: Structural based (HCI) (HepG2 cells [1]) | In vivo DILI ([2]; in vivo)

O=[N+]([O-])c1ccc(O)c([N+](=O)[O-])c1 [2,4 dinitrophenol]
+VE: Structural based (HCI) (HepG2 cells [1]; [12]) | In vivo DILI ([2]; ref Tolosa 2012)

CC(=O)Nc1cccc(O)c1 [3-acetamidophenol]
-VE: Structural based (HCI) (HepG2 cells [1]; [12]) | Structural based (HCI) (human hepatocytes) | In vivo DILI ([2]; ref O'Brien 2006) | In vivo DILI ([2]; ref Tolosa 2012) | In vivo DILI ([2]; ref Xu 2008)

C#C[C@]1(O)CC[C@H]2[C@@H]3CCc4cc(O)ccc4[C@H]3CC[C@@]21C [17-a ethynylestradiol]
+VE: Structural based (HCI) (HepG2 cells [1])

COC(c1ccccc1)(c1ccccc1)[C@H](Oc1nc(C)cc(C)n1)C(=O)O [ambrisentan]
5: DILI Score (FDA) (1-8) [7]
-VE: Cellular toxicity (3T3 cells) [3] | Combined Assay [3] | GSH adduct HML [3] | Hepatocyte cellular toxicity [3] | MitoTox 3T3 [3] | TDI CYP3A4 [3] | hBSEP inhibition [3] | Partition Hybrid HRM Score ([4]; In vitro Assay, ref Aleo 2019) | Ro2 Hybrid HRM Score ([4]; In vitro Assay, ref Aleo 2019) | DILI +VE (5-8), DILI -VE (-4) ([5]; ref Chen 2016) | hLiMTs ATP <100uM (hLiMTs) | hLiMTs ATP <20 x Cmax (PHH spheroids) | Bayesian Machine Learning [6] | PHH ATP <100uM (PHH) | In vivo DILI ([2]; ref Proctor 2017) | In vivo DILI ([2]; ref Schadt 2015) | In vivo DILI ([2]; ref Vorrink 2018) | In vivo DILI ([2]; ref Williams 2019)
Ambiguous DILI-concern: DILI severity category ([5]; ref Chen 2016)

NCC[C@H](O)C(=O)N[C@@H]1C[C@H](N)[C@@H](O[C@H]2O[C@H](CN)[C@@H](O)[C@H](O)[C@H]2O)[C@H](O)[C@H]1O[C@H]1O[C@H](CO)[C@@H](O)[C@H](N)[C@H]1O [amikacin]
-VE: Structural based (HCI) (HepG2 cells [1]; [12]) | DILI +VE (5-8), DILI -VE (-4) ([5]; ref Chen 2016) | In vivo DILI ([2]; ref Aleo 2019)
+VE: Partition Hybrid HRM Score ([4]; In vitro Assay, ref Aleo 2019) | Ro2 Hybrid HRM Score ([4]; In vitro Assay, ref Aleo 2019) | In vivo DILI ([2]; ref Tolosa 2012)
vNo-DILI-Concern: DILI severity category ([5]; ref Chen 2016)

CN1[C@@H]2CC[C@H]1C[C@@H](OC(=O)C(CO)c1ccccc1)C2 (stereo partly drawn) [atropine]
+VE: Structural based (HCI) (HepG2 cells [1])

CCN(CC)CCCC(C)Nc1ccnc2cc(Cl)ccc12 (stereo not drawn) [chloroquine]
vLess-DILI-Concern: DILI severity category ([5]; in vivo)
+VE: Ro2 Hybrid HRM Score [4] | Structural based (HCI) (HepG2 cells [1]) | DILI +VE (5-8), DILI -VE (-4) ([5]; in vivo) | Structural based (HCI) (HepG2 cells [8])

CC(C)(OO)c1ccccc1 [cumene hydroperoxide]
+VE: Structural based (HCI) (HepG2 cells [1]; [12]) | In vivo DILI ([2]; ref Tolosa 2012)

C[C@@H]1C[C@@H]([C@H](O)CC2CC(=O)NC(=O)C2)C(=O)[C@@H](C)C1 [cycloheximide]
+VE: Structural based (HCI) (HepG2 cells [1]) | In vivo DILI ([2]; in vivo)

C[S+](C)[O-] [dimethyl dulfoxide]
-VE: Cluser analysis (HepG2 cells [9]) | Structural based (HCI) (HepG2 cells [9]) | Structural based (HCI) (HepG2 cells [1]; [12]) | In vivo DILI ([2]; ref Persson 2013) | In vivo DILI ([2]; ref Tolosa 2012)

NC(=O)OCC(COC(N)=O)c1ccccc1 [felbamate]
vMost-DILI-Concern: DILI severity category ([5]; ref Chen 2016)
-VE: Cluser analysis (HepG2 cells [9]) | Structural based (HCI) (HepG2 cells [9]) | THLE-Null [10] | THLE-Null/3A4 [10] | hLiMTs ATP <100uM (hLiMTs) | Cluster 1-6 +VE Assay [11] | Structural based (HCI) (human hepatocytes) | PHH ATP <100uM (PHH) | Inhibition of rBsep cutoff<1& cmax u>.2 (rBsep) | Inhibition of rBsep cutoff<3 (rBsep)
+VE: DILI +VE (5-8), DILI -VE (-4) ([5]; ref Chen 2016) | Bayesian Machine Learning [6] | In vivo DILI ([2]; […]) | In vivo DILI ([2]; ref Dawson 2012) | In vivo DILI ([2]; ref Garside 2014) | In vivo DILI ([2]; ref Gustafsson 2014) | In vivo DILI ([2]; ref O'Brien 2006) | In vivo DILI ([2]; ref Persson 2013) | In vivo DILI ([2]; ref Proctor 2017) | In vivo DILI ([2]; ref Williams 2019) | In vivo DILI ([2]; ref Xu 2008) | Structural based (HCI) (HepG2 cells [8]; In vitro Assay, ref O'Brien 2006)
7: DILI Score (FDA) (1-8) [7]

N[C@H]1C(O)O[C@H](CO)[C@H](O)[C@@H]1O (stereo partly drawn) [galactosamine]
-VE: Structural based (HCI) (HepG2 cells [1]; [12])
+VE: In vivo DILI ([2]; ref O'Brien 2006) | In vivo DILI ([2]; ref Tolosa 2012)

C[C@H](CCC(=O)NCC(=O)O)[C@H]1CC[C@H]2[C@@H]3[C@H](O)C[C@@H]4C[C@H](O)CC[C@]4(C)[C@H]3CC[C@]12C [glycochenodeoxycholate]
+VE: Structural based (HCI), In vitro Assay (HepG2 cells [1]; HepG2 HCI, ref Tolosa 2012) | In vivo DILI ([2]; assignment in Tolosa 2012, ref Tolosa 2012)
